Experimental data taken from PMC5909127, “Optimization of a “bump-and-hole” approach to allele-selective BET bromodomain inhibition” (Chemical Science, 2018).

What was measured:
[1] = biological target: WT BET bromodomains (BD1 and BD2 of BRD2, BRD3 and BRD4); test: competitive AlphaLISA (Bio-JQ1 displacement); format: binding, human; details: mean and SD of all somatic bromodomains; active enantiomer concentration
BRD2 BD1 WT [2] = biological target: T1, BRD2 BD1 WT (Homo sapiens, UniProt P25440); test: ITC; format: binding; details: ITC, 30°C; read-out: Kd BRD2 BD1 WT
T1 sequence (P25440 71-176): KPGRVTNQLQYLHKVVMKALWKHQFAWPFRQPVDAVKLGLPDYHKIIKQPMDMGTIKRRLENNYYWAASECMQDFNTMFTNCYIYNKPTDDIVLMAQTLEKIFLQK

[3] = tested on: WT somatic BET bromodomains; test: ITC
BRD2 BD2 L/V [4] = biological target: T2, BRD2 BD2 L/V (Homo sapiens, UniProt P25440, L383V); test: ITC; format: binding
T2 sequence (P25440 344-455 L383V): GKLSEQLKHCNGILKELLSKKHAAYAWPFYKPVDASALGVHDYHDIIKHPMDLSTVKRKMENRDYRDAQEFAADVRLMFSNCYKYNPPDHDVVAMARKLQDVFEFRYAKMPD

BRD4 BD2 L/V [5] = biological target: T3, BRD4 BD2 L/V (Homo sapiens, UniProt O60885, L387V); test: ITC; format: binding
BRD2 BD1 L/V [6] = biological target: T4, BRD2 BD1 L/V (Homo sapiens, UniProt P25440, L110V); test: ITC; format: binding
T4 sequence (P25440 71-176 L110V limits assumed): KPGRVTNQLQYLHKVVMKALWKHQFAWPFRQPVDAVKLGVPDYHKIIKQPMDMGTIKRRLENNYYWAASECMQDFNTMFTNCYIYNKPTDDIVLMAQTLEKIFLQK

[7] = tested on: L/V somatic BET bromodomains; test: ITC
BRDT BD2 WT = BRDT BD2 WT (Homo sapiens, UniProt Q58F21); test: competitive AlphaLISA; format: binding; details: read-out: AlphaLISA pIC50 Value BRDT BD2 WT (converted)
BRD4 BD1 WT [8] = biological target: T5, BRD4 BD1 WT (Homo sapiens, UniProt O60885); test: competitive AlphaLISA; format: binding; details: read-out: AlphaLISA pIC50 Value BRD4 BD1 WT (converted)
BRD2 BD1 WT [9] = biological target: T1, BRD2 BD1 WT; test: competitive AlphaLISA; format: binding; details: read-out: AlphaLISA pIC50 Value BRD2 BD1 WT (converted)
BRD3 BD1 L/V [10] = biological target: T6, BRD3 BD1 L/V (Homo sapiens, UniProt Q15059, L70V); test: ITC; format: binding
T6 sequence (Q15059 24-144 L70V limits assumed): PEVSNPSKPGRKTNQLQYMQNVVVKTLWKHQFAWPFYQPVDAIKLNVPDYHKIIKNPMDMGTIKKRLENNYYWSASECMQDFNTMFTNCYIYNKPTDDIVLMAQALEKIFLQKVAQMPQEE

BRDT BD2 L/V = BRDT BD2 L/V (Homo sapiens, UniProt Q58F21, L306V); test: competitive AlphaLISA; format: binding; details: read-out: AlphaLISA pIC50 Value BRDT BD2 L/V (converted)
BRD3 BD1 WT [11] = biological target: T7, BRD3 BD1 WT (Homo sapiens, UniProt Q15059); test: competitive AlphaLISA; format: binding; details: read-out: AlphaLISA pIC50 Value BRD3 BD1 WT (converted)
T7 sequence (Q15059 24-144): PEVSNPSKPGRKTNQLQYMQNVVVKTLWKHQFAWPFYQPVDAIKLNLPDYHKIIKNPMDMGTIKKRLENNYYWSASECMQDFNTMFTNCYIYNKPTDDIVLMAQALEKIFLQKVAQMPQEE

BRD3 BD2 WT [12] = biological target: T8, BRD3 BD2 WT (Homo sapiens, UniProt Q15059); test: ITC; format: binding; details: ITC, 30°C; read-out: Kd BRD3 BD2 WT
T8 sequence (Q15059 306-416): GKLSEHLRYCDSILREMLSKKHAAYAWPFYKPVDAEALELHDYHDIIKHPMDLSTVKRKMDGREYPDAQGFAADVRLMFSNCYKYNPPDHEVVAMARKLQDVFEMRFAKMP

[13] = tested on: L/V BET bromodomains (BD1 and BD2 of BRD2, BRD3 and BRD4); test: competitive AlphaLISA (Bio-JQ1 displacement); format: binding, human
BRD2 BD2 L/V [14] = biological target: T2, BRD2 BD2 L/V; test: competitive AlphaLISA; format: binding; details: read-out: AlphaLISA pIC50 Value BRD2 BD2 L/V (converted)
in vitro [15] = details: PAMPA, pH 7.4
in vitro [16] = details: BALB/c, mouse, plasma, pH 7.4
BRD3 BD2 L/V [17] = biological target: T9, BRD3 BD2 L/V (Homo sapiens, UniProt Q15059, L345V); test: ITC; format: binding
T9 sequence (Q15059 306-416 L345V limits assumed): as the sequence (Q15059 306-416) above, with L40V counted along it

BRD4 BD2 WT [18] = biological target: T10, BRD4 BD2 WT (Homo sapiens, UniProt O60885); test: ITC; format: binding; details: ITC, 30°C; read-out: Kd BRD4 BD2 WT
BRD3 BD2 WT [19] = biological target: T8, BRD3 BD2 WT; test: competitive AlphaLISA; format: binding; details: read-out: AlphaLISA pIC50 Value BRD3 BD2 WT (converted)
BRD4 BD2 WT [20] = biological target: T10, BRD4 BD2 WT; test: competitive AlphaLISA; format: binding; details: read-out: AlphaLISA pIC50 Value BRD4 BD2 WT (converted)
BRD4 BD1 L/V [21] = biological target: T11, BRD4 BD1 L/V (Homo sapiens, UniProt O60885, L94V); test: competitive AlphaLISA; format: binding; details: read-out: AlphaLISA pIC50 Value BRD4 BD1 L/V (converted)
BRDT BD1 WT = BRDT BD1 WT (Homo sapiens, UniProt Q58F21); test: competitive AlphaLISA; format: binding; details: read-out: AlphaLISA pIC50 Value BRDT BD1 WT (converted)
BRD3 BD2 L/V [22] = biological target: T9, BRD3 BD2 L/V; test: competitive AlphaLISA; format: binding; details: read-out: AlphaLISA pIC50 Value BRD3 BD2 L/V (converted)
BRD4 BD1 L/V [23] = biological target: T11, BRD4 BD1 L/V; test: ITC; format: binding
BRD4 BD1 WT [24] = biological target: T5, BRD4 BD1 WT; test: ITC; format: binding; details: ITC, 30°C; read-out: Kd BRD4 BD1 WT
BRD4 BD2 L/V [25] = biological target: T3, BRD4 BD2 L/V; test: competitive AlphaLISA; format: binding; details: read-out: AlphaLISA pIC50 Value BRD4 BD2 L/V (converted)
BRD2 BD2 WT [26] = biological target: T12, BRD2 BD2 WT (Homo sapiens, UniProt P25440); test: competitive AlphaLISA; format: binding; details: read-out: AlphaLISA pIC50 Value BRD2 BD2 WT (converted)
T12 sequence (P25440 344-455): as the sequence (P25440 344-455 L383V) above, with V40L counted along it

BRD2 BD2 WT [27] = biological target: T12, BRD2 BD2 WT; test: ITC; format: binding; details: ITC, 30°C; read-out: Kd BRD2 BD2 WT
BRD2 BD1 L/V [28] = biological target: T4, BRD2 BD1 L/V; test: competitive AlphaLISA; format: binding; details: read-out: AlphaLISA pIC50 Value BRD2 BD1 L/V (converted)
BRD3 BD1 L/V [29] = biological target: T6, BRD3 BD1 L/V; test: competitive AlphaLISA; format: binding; details: read-out: AlphaLISA pIC50 Value BRD3 BD1 L/V (converted)
BRD3 BD1 WT [30] = biological target: T7, BRD3 BD1 WT; test: ITC; format: binding; details: ITC, 30°C; read-out: Kd BRD3 BD1 WT
[31] = mean and SD of all somatic bromodomains

CCNC(=O)[C@H](CC)[C@@H]1N=C(c2ccc(Cl)cc2)c2cc(OC)ccc2-n2c(C)nnc21 (relative stereo) [Compound 17]
AlphaLISA pIC50 ± SD WT [1]: 4.4 ± 0.1 | Kd (BRD2 BD1 WT [2]): > 60 µM | binding to any WT BET bromodomain ([3]; ITC): no detectable binding | ITC pKd ± SD WT [3, 31]: <4.2 | ΔH BRD2 BD2 L/V (BRD2 BD2 L/V [4]; ITC): -5.3 kcal/mol | N BRD2 BD2 L/V (BRD2 BD2 L/V [4]; ITC stoichiometry): 0.94 | Kd (BRD2 BD2 L/V [4]; ITC, 30°C, read-out: Kd BRD2 BD2 L/V): 1.3 µM | ΔH BRD4 BD2 L/V (BRD4 BD2 L/V [5]; ITC): -3.7 kcal/mol | N BRD4 BD2 L/V (BRD4 BD2 L/V [5]; ITC stoichiometry): 0.99 | Kd (BRD4 BD2 L/V [5]; ITC, 30°C, read-out: Kd BRD4 BD2 L/V): 1 µM | ΔH BRD2 BD1 L/V (BRD2 BD1 L/V [6]; ITC): -10.2 kcal/mol | N BRD2 BD1 L/V (BRD2 BD1 L/V [6]; ITC stoichiometry): 0.97 | Kd (BRD2 BD1 L/V [6]; ITC, 30°C, read-out: Kd BRD2 BD1 L/V): 0.96 µM | ITC pKd ± SD Δ ([7]; L/V minus WT): >1.8 ± 0.2 | ITC pKd ± SD L/V [7, 31]: 6.0 ± 0.2 | IC50 (BRDT BD2 WT): 79.4 µM | IC50 (BRD4 BD1 WT [8]): 50.1 µM | IC50 (BRD2 BD1 WT [9]): 63.1 µM | ΔH BRD3 BD1 L/V (BRD3 BD1 L/V [10]; ITC): -9.4 kcal/mol | N BRD3 BD1 L/V (BRD3 BD1 L/V [10]; ITC stoichiometry): 1.07 | Kd (BRD3 BD1 L/V [10]; ITC, 30°C, read-out: Kd BRD3 BD1 L/V): 0.74 µM | IC50 (BRDT BD2 L/V): 5.01 µM | IC50 (BRD3 BD1 WT [11]): 31.6 µM | Kd (BRD3 BD2 WT [12]): > 60 µM | AlphaLISA pIC50 ± SD Δ ([13]; L/V minus WT): 1.5 ± 0.2 | AlphaLISA pIC50 ± SD L/V ([13]; mean and SD of all somatic bromodomains, active enantiomer concentration): 5.9 ± 0.3 | IC50 (BRD2 BD2 L/V [14]): 1.26 µM | Papp (in vitro [15]): 4.5 ×10⁻⁶ cm/s | half-life at 50 µM (in vitro [16]): > 3 h | ΔH BRD3 BD2 L/V (BRD3 BD2 L/V [17]; ITC): -4.7 kcal/mol | N BRD3 BD2 L/V (BRD3 BD2 L/V [17]; ITC stoichiometry): 0.68 | Kd (BRD3 BD2 L/V [17]; ITC, 30°C, read-out: Kd BRD3 BD2 L/V): 0.61 ± 0.09 µM | Kd (BRD4 BD2 WT [18]): > 60 µM | IC50 (BRD3 BD2 WT [19]): 39.8 µM | IC50 (BRD4 BD2 WT [20]): 63.1 µM | IC50 (BRD4 BD1 L/V [21]): 2 µM | IC50 (BRDT BD1 WT): 63.1 µM | IC50 (BRD3 BD2 L/V [22]): 0.794 µM | ΔH BRD4 BD1 L/V (BRD4 BD1 L/V [23]; ITC): -5.9 kcal/mol | N BRD4 BD1 L/V (BRD4 BD1 L/V [23]; ITC stoichiometry): 0.99 | Kd (BRD4 BD1 L/V [23]; ITC, 30°C, read-out: Kd BRD4 BD1 L/V): 1.6 µM | Kd (BRD4 BD1 WT [24]): > 60 µM | IC50 (BRD4 BD2 L/V [25]): 2 µM | IC50 (BRD2 BD2 WT [26]): 25.1 µM | Kd (BRD2 BD2 WT [27]): > 60 µM | IC50 (BRD2 BD1 L/V [28]): 3.16 µM | IC50 (BRD3 BD1 L/V [29]): 0.501 µM | Kd (BRD3 BD1 WT [30]): > 60 µM
